Experimental data taken from publication PMC7366380, “Discovery of a Potent and Selective Covalent Inhibitor and Activity-Based Probe for the Deubiquitylating Enzyme UCHL1, with Antifibrotic Activity” (Journal of the American Chemical Society, 2020).
Values joined by “and” are separate entries in the source; they are usually repeats but may differ in a detail not shown here. Equal values may be shown once.

Key:
Assay in all cases: In-cell proteome-wide competitive ABPP, HEK293: other DUBs and proteins
[1] = target: DUBs and other proteins in HEK293 cells (Homo sapiens, UniProt O00487); conditions: replicates A-C; for Log2 reporter intensity values: PSMD14: competition with ABP 2, DMSO substract (FC); for Log2 reporter intensity values: PSMD14, DMSO subtracted
DUBs and other proteins in HEK293 cells (Homo sapiens, UniProt O00487), sequence (O00487 whole entry): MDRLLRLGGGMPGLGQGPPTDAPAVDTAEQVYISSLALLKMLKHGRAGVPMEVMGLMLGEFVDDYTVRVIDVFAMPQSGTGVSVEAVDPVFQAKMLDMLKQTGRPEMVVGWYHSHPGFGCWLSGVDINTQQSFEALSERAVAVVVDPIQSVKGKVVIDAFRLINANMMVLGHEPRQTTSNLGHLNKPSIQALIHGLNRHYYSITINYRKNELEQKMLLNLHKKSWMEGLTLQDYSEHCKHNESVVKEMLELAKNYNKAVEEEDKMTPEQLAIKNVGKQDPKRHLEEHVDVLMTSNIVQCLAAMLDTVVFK

[2] = target: DUBs and other proteins in HEK293 cells (Homo sapiens, UniProt Q6P2Q9); conditions: replicates A-C; for Log2 reporter intensity values: PRPF8: competition with ABP 2, DMSO substract (FC); for Log2 reporter intensity values: PRPF8, DMSO subtracted
[3] = target: DUBs and other proteins in HEK293 cells (Homo sapiens, UniProt Q93009); conditions: replicates A-C; for Log2 reporter intensity values: USP7: competition with ABP 2, DMSO substract (FC); for Log2 reporter intensity values: USP7, DMSO subtracted
DUBs and other proteins in HEK293 cells (Homo sapiens, UniProt Q93009), sequence (Q93009 whole entry): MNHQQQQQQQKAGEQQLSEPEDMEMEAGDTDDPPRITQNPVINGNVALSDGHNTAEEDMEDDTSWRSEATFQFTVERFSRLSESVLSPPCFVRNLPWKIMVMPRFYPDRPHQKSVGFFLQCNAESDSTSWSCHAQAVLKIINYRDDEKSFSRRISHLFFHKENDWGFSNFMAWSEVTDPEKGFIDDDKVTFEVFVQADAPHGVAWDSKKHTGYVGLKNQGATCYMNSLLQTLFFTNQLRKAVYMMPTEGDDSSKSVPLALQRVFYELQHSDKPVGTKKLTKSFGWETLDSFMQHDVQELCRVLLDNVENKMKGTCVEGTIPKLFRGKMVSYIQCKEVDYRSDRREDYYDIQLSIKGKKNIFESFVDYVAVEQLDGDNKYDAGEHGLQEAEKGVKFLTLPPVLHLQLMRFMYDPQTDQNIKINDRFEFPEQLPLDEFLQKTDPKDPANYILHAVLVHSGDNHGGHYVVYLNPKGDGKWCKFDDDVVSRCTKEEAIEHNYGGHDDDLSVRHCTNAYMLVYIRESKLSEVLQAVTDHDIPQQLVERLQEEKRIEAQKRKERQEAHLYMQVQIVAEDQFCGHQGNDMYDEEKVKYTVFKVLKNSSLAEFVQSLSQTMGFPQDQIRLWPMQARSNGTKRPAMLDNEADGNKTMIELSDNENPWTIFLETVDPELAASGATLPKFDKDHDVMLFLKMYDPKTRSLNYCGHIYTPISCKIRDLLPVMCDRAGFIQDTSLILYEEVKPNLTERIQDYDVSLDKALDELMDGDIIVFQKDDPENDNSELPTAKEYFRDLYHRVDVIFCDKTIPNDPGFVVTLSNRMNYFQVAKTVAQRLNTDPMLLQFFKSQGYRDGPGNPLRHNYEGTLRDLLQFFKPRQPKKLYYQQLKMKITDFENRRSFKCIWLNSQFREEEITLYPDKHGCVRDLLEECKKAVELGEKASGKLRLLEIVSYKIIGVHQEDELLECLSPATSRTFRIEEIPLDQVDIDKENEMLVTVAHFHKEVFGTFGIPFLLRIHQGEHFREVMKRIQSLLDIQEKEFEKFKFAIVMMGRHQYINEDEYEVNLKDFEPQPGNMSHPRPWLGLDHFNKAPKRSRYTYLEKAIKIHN

[4] = target: T1, DUBs and other proteins in HEK293 cells (Homo sapiens, UniProt Q53GS9); conditions: replicates A-C; for Log2 reporter intensity values: USP39: competition with ABP 2, DMSO substract (FC); for Log2 reporter intensity values: USP39, DMSO subtracted
T1 sequence (Q53GS9 1-565): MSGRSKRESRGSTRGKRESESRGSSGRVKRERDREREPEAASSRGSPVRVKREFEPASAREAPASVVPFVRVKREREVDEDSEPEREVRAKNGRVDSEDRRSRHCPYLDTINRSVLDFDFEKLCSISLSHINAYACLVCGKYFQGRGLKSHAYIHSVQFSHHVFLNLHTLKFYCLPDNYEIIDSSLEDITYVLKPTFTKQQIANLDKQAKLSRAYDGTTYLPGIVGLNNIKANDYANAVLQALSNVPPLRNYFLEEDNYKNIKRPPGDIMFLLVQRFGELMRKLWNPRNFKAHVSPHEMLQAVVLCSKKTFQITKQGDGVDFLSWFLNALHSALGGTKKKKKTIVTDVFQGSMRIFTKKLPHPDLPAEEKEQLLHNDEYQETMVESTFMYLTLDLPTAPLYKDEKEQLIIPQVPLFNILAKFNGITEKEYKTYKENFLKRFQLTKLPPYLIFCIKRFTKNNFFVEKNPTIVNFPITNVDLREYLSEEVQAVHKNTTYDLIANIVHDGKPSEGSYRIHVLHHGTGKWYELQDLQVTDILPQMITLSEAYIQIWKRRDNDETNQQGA

[5] = target: T2, DUBs and other proteins in HEK293 cells (Homo sapiens, UniProt Q86UV5); conditions: for Log2 reporter intensity values: USP48: competition with ABP 2, DMSO substract (FC), replicates A-B; for Log2 reporter intensity values: USP48, DMSO subtracted
T2 sequence (Q86UV5 1-1035): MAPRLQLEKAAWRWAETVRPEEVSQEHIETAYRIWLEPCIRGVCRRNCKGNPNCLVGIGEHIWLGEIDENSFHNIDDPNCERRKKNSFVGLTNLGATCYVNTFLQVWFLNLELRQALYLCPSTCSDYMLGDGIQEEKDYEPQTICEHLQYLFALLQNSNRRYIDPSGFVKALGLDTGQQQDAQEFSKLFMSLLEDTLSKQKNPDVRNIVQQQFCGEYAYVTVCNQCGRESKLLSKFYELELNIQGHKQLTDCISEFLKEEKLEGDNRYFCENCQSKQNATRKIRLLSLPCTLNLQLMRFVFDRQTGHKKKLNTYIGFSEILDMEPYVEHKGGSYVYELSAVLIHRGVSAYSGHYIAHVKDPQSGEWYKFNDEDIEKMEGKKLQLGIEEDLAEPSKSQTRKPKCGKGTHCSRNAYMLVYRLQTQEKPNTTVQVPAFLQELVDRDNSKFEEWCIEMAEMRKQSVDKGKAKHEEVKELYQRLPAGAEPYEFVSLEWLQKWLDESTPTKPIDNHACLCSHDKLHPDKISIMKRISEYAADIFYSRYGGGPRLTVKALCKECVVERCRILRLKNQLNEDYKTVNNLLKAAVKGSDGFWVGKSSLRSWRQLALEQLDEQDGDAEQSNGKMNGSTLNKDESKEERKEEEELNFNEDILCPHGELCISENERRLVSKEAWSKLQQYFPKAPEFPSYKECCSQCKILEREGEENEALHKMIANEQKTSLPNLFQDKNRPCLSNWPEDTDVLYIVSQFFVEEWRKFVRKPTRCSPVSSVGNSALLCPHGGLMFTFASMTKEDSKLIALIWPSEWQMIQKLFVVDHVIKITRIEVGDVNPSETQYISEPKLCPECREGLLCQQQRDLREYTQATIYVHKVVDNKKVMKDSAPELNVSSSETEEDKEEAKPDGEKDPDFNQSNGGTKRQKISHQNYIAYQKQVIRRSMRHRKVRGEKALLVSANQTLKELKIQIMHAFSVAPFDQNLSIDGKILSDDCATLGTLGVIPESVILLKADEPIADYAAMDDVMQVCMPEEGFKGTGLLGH

[6] = target: DUBs and other proteins in HEK293 cells (Homo sapiens, UniProt P54578); conditions: replicates A-C; for Log2 reporter intensity values: USP14: competition with ABP 2, DMSO substract (FC); for Log2 reporter intensity values: USP14, DMSO subtracted
DUBs and other proteins in HEK293 cells (Homo sapiens, UniProt P54578), sequence (P54578 whole entry): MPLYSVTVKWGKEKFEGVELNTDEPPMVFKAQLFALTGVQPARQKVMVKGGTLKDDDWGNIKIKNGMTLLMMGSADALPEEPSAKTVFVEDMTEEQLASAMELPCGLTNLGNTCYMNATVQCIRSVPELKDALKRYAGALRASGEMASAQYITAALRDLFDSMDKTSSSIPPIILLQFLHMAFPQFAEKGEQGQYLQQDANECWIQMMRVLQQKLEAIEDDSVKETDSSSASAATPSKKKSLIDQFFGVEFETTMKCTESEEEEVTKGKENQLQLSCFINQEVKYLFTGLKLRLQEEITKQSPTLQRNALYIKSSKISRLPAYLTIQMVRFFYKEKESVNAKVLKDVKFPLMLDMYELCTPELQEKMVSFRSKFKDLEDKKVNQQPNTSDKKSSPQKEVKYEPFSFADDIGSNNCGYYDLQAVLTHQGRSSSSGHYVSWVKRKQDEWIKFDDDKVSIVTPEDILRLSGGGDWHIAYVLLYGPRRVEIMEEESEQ

[7] = target: DUBs and other proteins in HEK293 cells (Homo sapiens, UniProt Q96BN8); conditions: replicates A-C; for Log2 reporter intensity values: OTULIN: competition with ABP 2, DMSO substract (FC); for Log2 reporter intensity values: OTULIN, DMSO subtracted
DUBs and other proteins in HEK293 cells (Homo sapiens, UniProt Q96BN8), sequence (Q96BN8 whole entry): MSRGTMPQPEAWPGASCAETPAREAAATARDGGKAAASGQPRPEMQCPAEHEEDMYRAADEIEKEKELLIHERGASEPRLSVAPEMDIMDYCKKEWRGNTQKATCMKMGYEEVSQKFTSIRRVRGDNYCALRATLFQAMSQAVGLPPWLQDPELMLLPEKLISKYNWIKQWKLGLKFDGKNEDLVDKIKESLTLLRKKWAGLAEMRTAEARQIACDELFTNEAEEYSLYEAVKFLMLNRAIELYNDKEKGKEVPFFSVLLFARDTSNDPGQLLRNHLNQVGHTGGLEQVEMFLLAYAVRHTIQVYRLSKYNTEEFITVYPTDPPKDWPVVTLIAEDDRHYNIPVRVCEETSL

## CC(=O)O/N=C1\C(=O)N(Cc2cc(Cl)ccc2Cl)c2ccc(Cl)cc21 [LDN]
[1]; LDN at 5 μM
  Log2 reporter intensity values: PSMD14: 1.1 and 1.114 and 0.9966
  Log2 reporter intensity values: 0.1369 and 0.1555 and -0.004904
[1]; LDN at 25 μM
  Log2 reporter intensity values: PSMD14: 0.9804 and 1.072 and 1.068
  Log2 reporter intensity values: -0.02853 and 0.1005 and 0.09452
[1]; LDN_5 μM
  Log2 reporter intensity values: 0.09685 and 0.1112 and -0.006053
[1]; LDN_25 μM
  Log2 reporter intensity values: -0.02224 and 0.06945 and 0.06505
[2]; LDN at 5 μM
  Log2 reporter intensity values: PRPF8: 0.8673 and 0.9446 and 0.9404
  Log2 reporter intensity values: -0.2054 and -0.08218 and -0.0886
[2]; LDN at 25 μM
  Log2 reporter intensity values: PRPF8: 0.9445 and 0.9891 and 0.9788
  Log2 reporter intensity values: -0.08236 and -0.01582 and -0.0309
[2]; LDN_5 μM
  Log2 reporter intensity values: -0.1329 and -0.05561 and -0.05981
[2]; LDN_25 μM
  Log2 reporter intensity values: -0.05573 and -0.01115 and -0.02143
[3]; LDN at 5 μM
  Log2 reporter intensity values: USP7: 1.02 and 1.001 and 1.029
  Log2 reporter intensity values: 0.02794 and 0.001316 and 0.0413
[3]; LDN at 25 μM
  Log2 reporter intensity values: USP7: 0.9945 and 1.07 and 1.065
  Log2 reporter intensity values: -0.007921 and 0.09748 and 0.09021
[3]; LDN_5 μM
  Log2 reporter intensity values: 0.01927 and 0.0006308 and 0.02876
[3]; LDN_25 μM
  Log2 reporter intensity values: -0.005757 and 0.06962 and 0.06425
[4]; LDN at 5 μM
  Log2 reporter intensity values: USP39: 1.029 and 1.043 and 0.9785
  Log2 reporter intensity values: 0.04123 and 0.06024 and -0.03137
[4]; LDN at 25 μM
  Log2 reporter intensity values: USP39: 1.07 and 1.069 and 1.033
  Log2 reporter intensity values: 0.09762 and 0.09571 and 0.04713
[4]; LDN_5 μM
  Log2 reporter intensity values: 0.02838 and 0.04203 and -0.02212
[4]; LDN_25 μM
  Log2 reporter intensity values: 0.0694 and 0.06798 and 0.0326
[5]; LDN at 5 μM
  Log2 reporter intensity values: USP48: 1.048 and 1.119
[5]; LDN at 25 μM
  Log2 reporter intensity values: USP48: 1.118 and 1.08
[5]; LDN at 5 μM, replicates A-C
  Log2 reporter intensity values: 0.0673 and 0.1618
[5]; LDN at 25 μM, replicates A-C
  Log2 reporter intensity values: 0.1604 and 0.1117
[5]; LDN_5 μM, replicates A-B (C NaN)
  Log2 reporter intensity values: 0.04647 and 0.1174
[5]; LDN_25 μM, replicates A-B (C NaN)
  Log2 reporter intensity values: 0.1163 and 0.0792
[6]; LDN at 5 μM
  Log2 reporter intensity values: USP14: 1.178 and 1.18 and 1.165
  Log2 reporter intensity values: 0.2361 and 0.2386 and 0.2201
[6]; LDN at 25 μM
  Log2 reporter intensity values: USP14: 1.092 and 1.124 and 1.125
  Log2 reporter intensity values: 0.1275 and 0.1688 and 0.1694
[6]; LDN_5 μM
  Log2 reporter intensity values: 0.1776 and 0.1796 and 0.1646
[6]; LDN_25 μM
  Log2 reporter intensity values: 0.0922 and 0.1239 and 0.1243
[7]; LDN at 5 μM
  Log2 reporter intensity values: OTULIN: 0.9147 and 1.064 and 1.028
  Log2 reporter intensity values: -0.1287 and 0.0891 and 0.03957
[7]; LDN at 25 μM
  Log2 reporter intensity values: OTULIN: 0.944 and 1.042 and 0.9874
  Log2 reporter intensity values: -0.08321 and 0.05912 and -0.01826
[7]; LDN_5 μM
  Log2 reporter intensity values: -0.08587 and 0.06318 and 0.02728
[7]; LDN_25 μM
  Log2 reporter intensity values: -0.05657 and 0.0413 and -0.01311
